Data on 14 molecules can be found in patent US20050090522A1 (priority 2001, published 2005).

One assay has as its system HIV-1. In words: HIV-1 single-round infectious luciferase reporter virus (pseudotype) assay in HeLa CD4 CCR5 cells. Format: cell-based. The note with it: Human immunodeficiency virus 1, HeLa-CD4/CCR5, read-out: EC50 Group from TABLE 1, HeLa CD4 CCR5 cells, single-round infectious luciferase reporter virus. The procedure: • Virus production—Human embryonic Kidney cell line, 293, propagated in Dulbecco's Modified Eagle Medium (Life Technologies, Gaithersburg, Md.) containing 10% fetal Bovine serum (FBS, Sigma, St. Louis, Mo.). • Virus infection—Human epithelial cell line, HeLa, expressing the HIV-1 receptors CD4 and CCR^5 was propagated in Dulbecco's Modified Eagle Medium (Life Technologies, Gaithersburg, Md.) containing 10% fetal Bovine serum (FBS, Sigma, St. Louis, Mo.) and supplemented with 0.2 mg/mL Geneticin (Life Technologies, Gaithersburg, Md.) and 0.4 mg/mL Zeocin (Invitrogen, Carlsbad, Calif.). […] Transfections were performed using lipofectAMINE PLUS reagent as described by the manufacturer (Life Technologies, Gaithersburg, Md.). Experiment • 1. Compound was added to HeLa CD4 CCR5 cells plated in 96 well plates at a cell density of 5×10^4 cells per well in 100 μl Dulbecco's Modified Eagle Medium containing 10% fetal Bovine serum at a concentration of […]. • 2. 100 μl of single-round infectious reporter virus in Dulbecco's Modified Eagle Medium was then added to the plated cells and compound at an approximate multiplicity of infection (MOI) of 0.01, resulting in a final volume of 200 μl per well and a final compound concentration of <10 μM. • 3. Samples were harvested 72 h after infection. • 4. Viral infection was monitored by measuring luciferase expression from viral DNA in the infected cells using a luciferase reporter gene assay kit (Roche Molecular Biochemicals, Indianapolis, Ind.). Infected cell supernatants were removed and 50 μl of Dulbecco's Modified Eagle Medium (without phenol red) and 50 μl of luciferase assay reagent reconstituted as described by the manufacturer (Roche Molecular Biochemicals, Indianapolis, Ind.) was added per well. Luciferase activity was then quantified by measuring luminescence using a Wallac microbeta scintillation counter. • 5. […] An EC50 provides a method for comparing the antiviral potency of the compounds of this invention. The effective concentration for fifty percent inhibition (EC50) was calculated with the Microsoft Excel Xlfit curve fitting software. For each compound, curves were generated from percent inhibition calculated at 10 different concentrations by using a four paramenter logistic model (model 205). Table 1 is the key for the data in Tables 2-4. Cytoxicity assays were conducted with the same HeLa using methodology well known in the art.
In Table 5, X2, X4 etc. indicates the point of attachment. […] The data at 10 μM was calculated in the following manner:
For compounds tested at concentrations less than 10 μM, the percent inhibition at 10 μM was determined by extrapolation using the XLfit curve fitting feature of the Microsoft Excel spreadsheet software. Curves were obtained from 10 data points (% inhibition determined at 10 concentrations of compound) by using a four parameter logistic model (XLfit model 205: y=A+((B−A)/(I+((C/x)^D))), where, A=minimum y, B=maximum y, C=logEC50, D=slope factor, and x and y are known data values. Extrapolations were performed with the A and B parameters unlocked. […]
On the technique in general: A reporter such as luciferase makes a cellular process visible.
Consider `COc1cnc(-c2cnc(N(C)C)cn2)c2[nH]cc(C(=O)C(=O)N3CCN(C(=O)c4ccccc4)CC3)c12` [Example 72, 1-(benzoyl)-4-[(4-methoxy-7-(2-dimethylamino-pyrazin-5-yl)-6-azaindol-3-yl)-oxoacetyl]piperazine], for which the EC50 is < 1 µM.

For the molecule `COc1cnc(-c2cccc(N)n2)c2[nH]cc(C(=O)C(=O)N3CCN(C(=O)c4ccccc4)CC3)c12` [Example 75, 1-benzoyl-4-[(4-methoxy-7-(2-aminopyridin-6-yl)-6-azaindol-3-yl)-oxoacetyl]piperazine], the EC50 was < 1 µM.

On to `COc1cnc(-c2cccc(C)n2)c2[nH]cc(C(=O)C(=O)N3CCN(C(=O)c4ccccc4)CC3)c12` [Example 76, 1-benzoyl-4-[(4-methoxy-7-(2-methyl-pyridin-6-yl)-6-azaindol-3-yl)-oxoacetyl]piperazine], for which the EC50 was < 1 µM.

Regarding `COc1cccc(-c2ncc(OC)c3c(C(=O)C(=O)N4CCN(C(=O)c5ccccc5)CC4)c[nH]c23)n1` [Example 77, 1-benzoyl-4-[(4-methoxy-7-(2-methoxy-pyridin-6-yl)-6-azaindol-3-yl)-oxoacetyl]piperazine], the EC50 is < 1 µM.

As to `CCNc1cnc(-c2ncc(OC)c3c(C(=O)C(=O)N4CCN(C(=O)c5ccccc5)CC4)c[nH]c23)cn1` [Example 79, 1-benzoyl-4-[(4-methoxy-7-(2-ethylamino-pyrazin-5-yl)-6-azaindol-3-yl)-oxoacetyl]piperazine], the EC50 is < 1 µM.

For `COc1cnc(-c2ccoc2)c2[nH]cc(C(=O)C(=O)N3CCN(C(=O)c4ccccc4)CC3)c12` [Example 81, 1-benzoyl-4-[(4-methoxy-7-(furan-3-yl)-6-azaindol-3-yl)-oxoacetyl]piperazine], the EC50 is < 1 µM.

Consider `COc1cnc(-c2cccs2)c2[nH]cc(C(=O)C(=O)N3CCN(C(=O)c4ccccc4)CC3)c12` [Example 82, 1-benzoyl-4-[(4-methoxy-7-(thiophen-2-yl)-6-azaindol-3-yl)-oxoacetyl]piperazine], for which the EC50 is < 1 µM.

On to `COc1cnc(-c2ccsc2)c2[nH]cc(C(=O)C(=O)N3CCN(C(=O)c4ccccc4)CC3)c12` [Example 83, 1benzoyl-4-[(4-methoxy-7-(thiophen-3-yl)-6-azaindol-3-yl)-oxoacetyl]piperazine], for which the EC50 is < 1 µM.

As for `COc1cnc(-c2ccc(C=O)s2)c2[nH]cc(C(=O)C(=O)N3CCN(C(=O)c4ccccc4)CC3)c12` [Example 84, 1-benzoyl-4-[(4-methoxy-7-(5-carbonyl-thiophen-2-yl)-6-azaindol-3-yl)-oxoacetyl]piperazine], the EC50 is < 1 µM.

Take `COc1cnc(-c2ccc(C=O)o2)c2[nH]cc(C(=O)C(=O)N3CCN(C(=O)c4ccccc4)CC3)c12` [Example 85, 1-(benzoyl)-4-[(4-methoxy-7-(5-carbonyl-furan-2-yl)-6-azaindol-3-yl)-oxoacetyl]piperazine]: the EC50 is < 1 µM.

For the molecule `COc1cnc(-c2ccc(C(=O)O)o2)c2[nH]cc(C(=O)C(=O)N3CCN(C(=O)c4ccccc4)CC3)c12` [Example 87, 1-benzoyl-4-[(4-methoxy-7-(2-hydroxycarbonyl-furan-5-yl)-6-azaindol-3-yl)-oxoacetyl]piperazine], the concentration for a half-maximal effect (EC50) was < 1 µM.

Turning to `CCc1ncc(-c2ncc(OC)c3c(C(=O)C(=O)N4CCN(C(=O)c5ccccc5)CC4)c[nH]c23)s1` [Example 88, 1-benzoyl-4-[(4-methoxy-7-(2-ethyl-thiazol-5-yl)-6-azaindol-3-yl)-oxoacetyl]piperazine], the concentration for a half-maximal effect (EC50) is < 1 µM.

As to `CC(C)Cc1ncc(-c2nccc3c(C(=O)C(=O)N4CCN(C(=O)c5ccccc5)CC4)c[nH]c23)s1` [Example 89, 1-benzoyl-4-[(7-(2-isobutyl-thiazol-5-yl)-6-azaindol-3-yl)-oxoacetyl]piperazine], the concentration for a half-maximal effect (EC50) is < 1 µM.

Staying with this assay, now noted: Human immunodeficiency virus 1, HeLa-CD4/CCR5, read-out: EC50 Group from Table 1, Table 4; HeLa CD4 CCR5 cells, single-round luciferase reporter virus.
For the molecule `Cc1csc(-c2ccnc3c(C(=O)C(=O)N4CCN(C(=O)c5ccccc5)C[C@H]4C)c[nH]c23)c1` [Example 86, 1-benzoyl-3-(R)-methyl-4-[(7-(4-methyl-thiophen-2-yl)-4-azaindol-3-yl)-oxoacetyl]piperazine], the EC50 was < 1 µM.

Broadly, the EC50 is the concentration needed to bring the measured effect to its halfway point.
